Data published in patent publication US20090131500A1, “PORPHYRIN DERIVATES AND THEIR USE AS PHOTOSENSITIZERS IN PHOTODYNAMIC THERAPY” (priority 2006, published 2009).

Key:
Assay type in all cases: physicochemical
[1] = Time-resolved singlet oxygen luminescence at 1270 nm (singlet oxygen quantum yield); conditions: excitation at 510 nm, Pheo as reference
Experimental: Photosensitizer-generated time-resolved singlet oxygen luminescence was measured at 1270 nm. A nanosecond Nd-YAG laser (BMI) equipped with an OPO (BMI) was used to excite the samples at 510 nm and the luminescence signal was recorded by a germanium pin diode (Northcoast). To calculate the singlet oxygen quantum yield, (DA, the solution of Pheo in DMF as well as in ethanol were used as reference (ΦΔ^Pheo=0.52).

[2] = Steady-state fluorescence spectrum (fluorescence quantum yield)
Experimental: (§1) The ground state absorption spectra were recorded at room temperature using a commercial spectrophotometer Shimadzu UV-2501PC. Steady-state fluorescence spectra were measured in 1 cm×1 cm quartz optical cells using a combination of a cw-Xenon lamp (XBO 150) and a monochromator (Lot-Oriel, bandwidth 10 nm) for excitation and a polychromator with a cooled CCD matrix as a detector system (Lot-Oriel, Instaspec IV).

[3] = Ground state absorption spectrum
Experimental: as §1

[4] = Transient absorption spectra (ISC / triplet quantum yield)
Experimental: To measure transient absorption spectra (TAS), a white light continuum was generated as a test beam in a cell with D2O/H2O mixture using intense 25 ps single pulses from a Nd:YAG laser (Ekspla) at 1064 nm. Before passing through the sample, the continuum radiation was split to get a reference spectrum. The transmitted as well as the reference beam were focused into two optical fibers and were recorded simultaneously at different traces on a CCD-matrix (Lot-Oriel, Instaspec IV). The tunable radiation of a OPO/OPG (Ekspla, tuning range 210-2300 nm) pumped by the third harmonic of the same laser was used for excitation of the samples. The mechanical delay line allowed measuring the light-induced changes in the absorption spectrum at different time delays up to 15 ns after excitation.

5^4, 10^4, 15^4, 20^4-tetra-t-butyl[3,5^2]-ethano-5^6-methyl-3^1-oxo-5,10,15,20-tetraphenylporphyrin [FB-1-CO]
singlet oxygen quantum yield ΦΔ [1]: 0.9
fluorescence quantum yield ΦFl [2]: 0.02
absorption band of the first excited singlet state ([3]; in ethanol (FIG. 1)): 690 nm
Qy-absorption at λ ([3]; room temperature): 690 nm
ISC quantum yield ΦISC [4]: 0.95±0.05
